Data reported in ChEMBL document CHEMBL3991601, “The target landscape of clinical kinase drugs” (Science, 2017).
Calls of active or inactive are those of the source.

How the values were obtained:
[1] = target: Mitogen-activated protein kinase 10 (Homo sapiens, UniProt P53779)
[2] = target: Phosphatidylethanolamine-binding protein 1 (Homo sapiens, UniProt P30086)
[3] = target: T1, Peroxisomal acyl-coenzyme A oxidase 3 (Homo sapiens, UniProt O15254)
T1 sequence (O15254 whole entry): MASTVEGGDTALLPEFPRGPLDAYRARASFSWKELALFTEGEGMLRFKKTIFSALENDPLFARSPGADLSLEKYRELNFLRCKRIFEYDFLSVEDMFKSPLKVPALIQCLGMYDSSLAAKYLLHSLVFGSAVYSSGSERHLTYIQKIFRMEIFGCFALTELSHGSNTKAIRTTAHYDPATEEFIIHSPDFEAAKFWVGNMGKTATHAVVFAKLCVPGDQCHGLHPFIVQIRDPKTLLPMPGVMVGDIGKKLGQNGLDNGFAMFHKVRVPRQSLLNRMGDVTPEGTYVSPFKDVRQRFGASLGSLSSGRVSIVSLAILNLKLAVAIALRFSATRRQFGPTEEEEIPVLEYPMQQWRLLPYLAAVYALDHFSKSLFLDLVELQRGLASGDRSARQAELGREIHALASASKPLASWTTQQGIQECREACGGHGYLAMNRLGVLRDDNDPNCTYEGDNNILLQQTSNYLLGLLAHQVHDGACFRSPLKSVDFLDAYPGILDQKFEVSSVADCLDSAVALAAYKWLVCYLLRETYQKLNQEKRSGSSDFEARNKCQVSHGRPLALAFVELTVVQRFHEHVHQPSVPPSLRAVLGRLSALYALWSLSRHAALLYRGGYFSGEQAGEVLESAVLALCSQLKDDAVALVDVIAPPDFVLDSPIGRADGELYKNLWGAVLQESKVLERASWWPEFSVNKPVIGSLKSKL

[4] = target: Ribosomal protein S6 kinase alpha-6 (Homo sapiens, UniProt Q9UK32)
Sequence of Ribosomal protein S6 kinase alpha-6 (Q9UK32 whole entry): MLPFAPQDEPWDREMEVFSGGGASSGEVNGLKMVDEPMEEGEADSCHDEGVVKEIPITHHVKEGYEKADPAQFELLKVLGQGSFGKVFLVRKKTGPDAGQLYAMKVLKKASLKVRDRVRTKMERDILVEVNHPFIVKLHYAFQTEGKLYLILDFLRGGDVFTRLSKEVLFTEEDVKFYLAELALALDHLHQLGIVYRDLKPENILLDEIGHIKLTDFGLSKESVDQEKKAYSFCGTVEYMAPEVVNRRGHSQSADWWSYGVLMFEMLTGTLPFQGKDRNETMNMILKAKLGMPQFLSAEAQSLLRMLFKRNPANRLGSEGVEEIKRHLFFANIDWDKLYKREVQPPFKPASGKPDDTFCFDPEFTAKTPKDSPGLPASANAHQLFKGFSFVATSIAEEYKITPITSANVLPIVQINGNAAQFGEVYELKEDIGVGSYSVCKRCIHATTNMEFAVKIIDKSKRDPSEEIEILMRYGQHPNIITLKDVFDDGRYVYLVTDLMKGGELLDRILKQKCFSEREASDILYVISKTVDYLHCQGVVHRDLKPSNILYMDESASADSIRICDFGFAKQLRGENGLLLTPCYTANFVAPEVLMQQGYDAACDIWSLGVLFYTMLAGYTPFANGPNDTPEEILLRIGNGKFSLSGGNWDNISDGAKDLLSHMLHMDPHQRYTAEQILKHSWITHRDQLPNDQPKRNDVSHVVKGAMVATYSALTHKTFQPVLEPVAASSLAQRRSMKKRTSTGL

[5] = target: Rho-associated protein kinase 2 (Homo sapiens, UniProt O75116)
Sequence of Rho-associated protein kinase 2 (O75116 whole entry): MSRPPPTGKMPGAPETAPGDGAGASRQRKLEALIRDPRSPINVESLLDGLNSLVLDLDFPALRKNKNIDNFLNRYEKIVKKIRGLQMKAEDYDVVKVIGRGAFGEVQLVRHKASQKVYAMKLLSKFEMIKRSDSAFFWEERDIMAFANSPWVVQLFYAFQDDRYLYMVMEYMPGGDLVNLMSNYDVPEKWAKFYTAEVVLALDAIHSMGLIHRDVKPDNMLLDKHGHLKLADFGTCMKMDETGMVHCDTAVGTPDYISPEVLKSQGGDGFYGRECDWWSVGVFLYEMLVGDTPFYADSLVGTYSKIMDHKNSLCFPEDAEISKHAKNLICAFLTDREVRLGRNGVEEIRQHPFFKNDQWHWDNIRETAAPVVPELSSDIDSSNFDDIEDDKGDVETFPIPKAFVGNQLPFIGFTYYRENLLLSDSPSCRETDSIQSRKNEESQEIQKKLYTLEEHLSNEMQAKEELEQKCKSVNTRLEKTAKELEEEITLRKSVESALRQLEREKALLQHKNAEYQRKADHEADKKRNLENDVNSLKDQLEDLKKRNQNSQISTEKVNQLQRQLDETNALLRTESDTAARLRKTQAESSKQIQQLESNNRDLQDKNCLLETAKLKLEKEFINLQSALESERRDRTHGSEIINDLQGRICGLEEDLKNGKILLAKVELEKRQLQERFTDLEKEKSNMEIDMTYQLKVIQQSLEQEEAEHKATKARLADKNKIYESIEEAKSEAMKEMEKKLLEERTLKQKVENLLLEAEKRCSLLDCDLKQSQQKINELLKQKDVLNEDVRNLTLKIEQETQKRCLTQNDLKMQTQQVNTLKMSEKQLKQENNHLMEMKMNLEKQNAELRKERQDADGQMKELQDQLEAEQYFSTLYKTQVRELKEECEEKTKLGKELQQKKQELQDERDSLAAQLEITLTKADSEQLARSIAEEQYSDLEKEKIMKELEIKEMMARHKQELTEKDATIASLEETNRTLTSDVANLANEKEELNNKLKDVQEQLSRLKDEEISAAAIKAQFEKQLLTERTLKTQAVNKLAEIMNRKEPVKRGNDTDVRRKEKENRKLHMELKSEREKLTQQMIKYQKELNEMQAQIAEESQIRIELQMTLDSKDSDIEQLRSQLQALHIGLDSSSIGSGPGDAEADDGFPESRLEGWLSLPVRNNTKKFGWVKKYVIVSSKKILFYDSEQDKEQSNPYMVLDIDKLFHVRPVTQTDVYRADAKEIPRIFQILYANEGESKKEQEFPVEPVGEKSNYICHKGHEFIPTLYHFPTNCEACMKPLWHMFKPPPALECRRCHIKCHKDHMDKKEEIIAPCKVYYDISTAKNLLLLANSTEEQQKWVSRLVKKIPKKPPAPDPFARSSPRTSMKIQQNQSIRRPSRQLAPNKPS

[6] = target: T2, Mitogen-activated protein kinase kinase kinase 6 (Homo sapiens, UniProt O95382)
T2 sequence (O95382 whole entry): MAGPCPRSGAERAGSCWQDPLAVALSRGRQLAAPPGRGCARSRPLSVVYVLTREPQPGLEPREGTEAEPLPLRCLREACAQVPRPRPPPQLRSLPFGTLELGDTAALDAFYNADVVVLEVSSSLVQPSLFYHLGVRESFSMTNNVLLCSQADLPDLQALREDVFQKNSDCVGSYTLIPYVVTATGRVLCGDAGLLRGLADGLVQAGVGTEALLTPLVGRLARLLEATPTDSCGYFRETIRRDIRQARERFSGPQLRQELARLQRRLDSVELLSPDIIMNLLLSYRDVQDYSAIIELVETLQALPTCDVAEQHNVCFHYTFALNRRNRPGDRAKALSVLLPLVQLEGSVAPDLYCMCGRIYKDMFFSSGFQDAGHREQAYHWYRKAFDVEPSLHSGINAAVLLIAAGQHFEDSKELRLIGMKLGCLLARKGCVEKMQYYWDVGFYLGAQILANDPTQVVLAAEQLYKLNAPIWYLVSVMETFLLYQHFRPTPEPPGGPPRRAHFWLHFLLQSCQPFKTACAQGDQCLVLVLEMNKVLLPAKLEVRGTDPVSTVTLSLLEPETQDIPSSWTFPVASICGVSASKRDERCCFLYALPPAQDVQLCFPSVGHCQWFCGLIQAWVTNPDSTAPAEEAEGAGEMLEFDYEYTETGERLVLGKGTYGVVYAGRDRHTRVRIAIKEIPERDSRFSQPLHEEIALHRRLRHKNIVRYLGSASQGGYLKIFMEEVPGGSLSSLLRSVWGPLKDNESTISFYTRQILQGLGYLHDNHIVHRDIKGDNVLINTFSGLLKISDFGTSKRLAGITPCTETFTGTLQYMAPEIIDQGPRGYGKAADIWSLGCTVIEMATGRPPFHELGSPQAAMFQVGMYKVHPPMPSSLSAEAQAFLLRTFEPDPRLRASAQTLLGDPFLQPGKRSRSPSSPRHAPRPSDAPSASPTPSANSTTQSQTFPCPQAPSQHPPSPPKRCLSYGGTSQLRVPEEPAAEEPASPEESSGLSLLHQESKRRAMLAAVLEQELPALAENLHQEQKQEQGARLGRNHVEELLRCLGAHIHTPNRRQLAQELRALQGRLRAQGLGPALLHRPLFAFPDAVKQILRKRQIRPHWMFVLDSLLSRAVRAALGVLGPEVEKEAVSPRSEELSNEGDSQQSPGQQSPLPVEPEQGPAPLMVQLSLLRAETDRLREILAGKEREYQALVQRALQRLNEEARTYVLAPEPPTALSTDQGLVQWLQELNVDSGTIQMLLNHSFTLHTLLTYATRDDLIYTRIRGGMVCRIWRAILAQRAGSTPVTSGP

[7] = target: Fibroblast growth factor receptor 1 (Homo sapiens, UniProt P11362)
Sequence of Fibroblast growth factor receptor 1 (P11362 whole entry): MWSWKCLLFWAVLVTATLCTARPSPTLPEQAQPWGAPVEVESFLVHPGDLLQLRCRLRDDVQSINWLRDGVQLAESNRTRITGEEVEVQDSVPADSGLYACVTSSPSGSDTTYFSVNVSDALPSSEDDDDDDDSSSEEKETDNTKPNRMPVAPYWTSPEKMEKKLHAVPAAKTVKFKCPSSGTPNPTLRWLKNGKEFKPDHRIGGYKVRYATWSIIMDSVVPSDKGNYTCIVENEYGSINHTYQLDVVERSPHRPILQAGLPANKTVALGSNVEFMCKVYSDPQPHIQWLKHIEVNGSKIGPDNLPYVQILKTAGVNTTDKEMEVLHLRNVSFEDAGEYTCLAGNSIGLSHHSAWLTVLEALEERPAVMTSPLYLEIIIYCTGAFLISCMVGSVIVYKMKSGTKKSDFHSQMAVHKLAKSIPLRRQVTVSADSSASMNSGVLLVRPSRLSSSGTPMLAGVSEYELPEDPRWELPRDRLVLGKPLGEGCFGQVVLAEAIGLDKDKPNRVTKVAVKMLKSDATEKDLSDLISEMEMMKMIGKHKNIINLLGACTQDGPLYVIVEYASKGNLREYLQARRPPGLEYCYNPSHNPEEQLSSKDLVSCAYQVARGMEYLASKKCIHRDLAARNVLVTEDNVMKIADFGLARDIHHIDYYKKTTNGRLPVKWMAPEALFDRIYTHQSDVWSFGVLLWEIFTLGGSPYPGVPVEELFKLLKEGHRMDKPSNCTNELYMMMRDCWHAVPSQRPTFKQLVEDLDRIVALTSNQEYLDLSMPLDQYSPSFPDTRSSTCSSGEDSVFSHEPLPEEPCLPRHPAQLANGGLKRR
Further: in the data inactive means no Kd found up to 30 µM.

Sequence of Mitogen-activated protein kinase 10 (P53779 whole entry): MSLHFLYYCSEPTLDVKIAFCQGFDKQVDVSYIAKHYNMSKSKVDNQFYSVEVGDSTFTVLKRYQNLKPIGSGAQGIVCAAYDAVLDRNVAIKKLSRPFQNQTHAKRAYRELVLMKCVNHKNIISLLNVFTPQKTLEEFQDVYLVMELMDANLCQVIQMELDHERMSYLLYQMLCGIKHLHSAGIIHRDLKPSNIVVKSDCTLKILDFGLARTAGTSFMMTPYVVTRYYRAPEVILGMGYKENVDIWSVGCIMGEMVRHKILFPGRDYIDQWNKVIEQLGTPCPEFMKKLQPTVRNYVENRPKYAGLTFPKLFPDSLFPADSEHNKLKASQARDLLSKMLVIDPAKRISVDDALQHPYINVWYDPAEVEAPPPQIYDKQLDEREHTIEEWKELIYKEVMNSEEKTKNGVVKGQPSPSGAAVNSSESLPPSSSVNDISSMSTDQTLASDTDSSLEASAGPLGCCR
Sequence of Phosphatidylethanolamine-binding protein 1 (P30086 whole entry): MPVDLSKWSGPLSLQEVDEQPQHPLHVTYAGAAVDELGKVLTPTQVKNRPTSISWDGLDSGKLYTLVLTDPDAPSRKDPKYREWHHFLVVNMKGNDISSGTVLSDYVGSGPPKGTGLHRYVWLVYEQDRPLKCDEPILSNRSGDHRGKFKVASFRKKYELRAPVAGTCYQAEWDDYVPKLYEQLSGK

Kd [1]: > 30 µM (inactive)
Kd [2]: > 30 µM (inactive)
Kd [3]: > 30 µM (inactive)
Kd [4]: > 30 µM (inactive)
Kd [5]: 59 µM
Kd [6]: > 30 µM (inactive)
Kd [7]: > 30 µM (inactive)
SMILES: CN1C/C=C/CCOc2cccc(c2)-c2ccnc(n2)Nc2cccc(c2)C1 [ZOTIRACICLIB]
